# Reference: US20030100598A1, “Novel esters derived from (rr,ss)-2-hydroxybenzoate of 3-(2-dimethylaminomethyl-1-hydroxycyclohexyl)phenyl” (priority 1999, published 2003)
# Tests used:
# Male Swiss mice [1] = test: Hot plate method, analgesic activity in mice; format: in vivo; settings: for % response time increase: hot plate, 15 mg/kg, intraperitoneal adm., n = 20; for % response time increase on hot plate: 20 μmol/kg, oral adm., n = 20-40
# Description: The method that was used is described by Eddy N. B. and Leimbach D. (J. Pharm. Exp. Ther. 107: 385-393, 1953). The analgesic effect of the products was evaluated analysing the behaviour of the animals on a hot surface at 55° C.±1° C.
# Male Swiss mice weighing 20-25 g were used. The compounds being tested were administered orally or intraperitoneally 1 hour ∘ 30 minutes before starting the test, respectively.
# The process consisted of placing the animals on the plate and keeping them in a Plexiglas cylinder 25 cm high and 21 cm […]. The time the animals took to jump off the hot surface was determined. The animals were selected before starting the test so that those that took longer than 10 seconds to jump off were not included in the group that would receive treatment.
# 30 minutes after administering the product being tested, the test was repeated and the maximum time it took the animals to jump off was again recorded.
# The results are expressed as the % of jump time increase calculated as follows: [formula]
# In order to determine the duration of the analgesic effect of the orally administered products, the analgesic activity was evaluated on the hot plate 1, 3, 6, 8, and 24 hours after the administration of the product, as well as the control group which received treatment only with the vehicle. The base responses were evaluated at 30 and 5 minutes prior to administering the products.
# Male Swiss mice [2] = test: Determination of the DL50 (acute single dose oral toxicity); format: in vivo; settings: oral adm., 14 days observation
# Description: (EUDRA/S/87/011, Single Dose Toxicity, European Directive 75/318/EEC) (ICH S4, Toxicity Studies, single dose and repeated dose, CPMP vol III February 87, Single dose toxicity)
# Male Swiss mice of the same batch weighing 20-25 g are used in order to estimate the acute toxicity of the products.
# Prior to administering the products, the animals were forced to fast for 12 hours with no intake of food but free access to water. Several subgroups of 10 animals were randomly selected and orally given increasing doses of the products in single administration, after which they remained under observation for a period of 14 days with free access to water and food. Finally, the number of dead animals of each subgroup was quantified and the value of the DL50 was calculated (1-2).
Structure (SMILES),% response time increase (Male Swiss mice [1]),DL50 approx. (Male Swiss mice [2]),% response time increase on hot plate (Male Swiss mice [1])
"CC(C)Cc1ccc(C(C)C(=O)Oc2cccc(C3=C(CN(C)C)CCCC3)c2)cc1 (stereo not drawn) [EXAMPLE 4, 3-(2-dimethylaminomethyl-cyclohex-1-enyl)-phenyl 2-(4-isobutyl-phenyl)-propionate]",333 ± 134%,–,–
"CN(C)CC1CCCCC1(O)c1cccc(OC(=O)C2CCn3c(C(=O)c4ccccc4)ccc32)c1 (stereo not drawn) [EXAMPLE 3, 3-(2-dimethylaminomethyl-1-hydroxy-cyclohexyl)-phenyl 5-benzoyl-2,3-dihydro-1H-pyrrolizine-1-carboxylate]",416 ± 146%,–,–
"CN(C)CC1=C(c2cccc(OC(=O)c3ccccc3O)c2)CCCC1 [EXAMPLE 7, 3-(2-dimethylaminomethyl-cyclohex-1-enyl)-phenyl 2-hydroxybenzoate]",634 ± 42%,–,–
"COc1ccc2cc(C(C)C(=O)Oc3cccc(C4(O)CCCCC4CN(C)C)c3)ccc2c1 (stereo not drawn) [EXAMPLE 2, 3-(2-dim-ethylaminomethyl-1-hydroxy-cyclohexyl)-phenyl 2-(6-methoxy-naphthalen-2-yl)-propionate]",539 ± 50%,–,–
"CC(C)Cc1ccc(C(C)C(=O)Oc2cccc(C3(O)CCCCC3CN(C)C)c2)cc1 (stereo not drawn) [EXAMPLE 1, 3-(2-dimethylaminomethyl-1-hydroxy-cyclohexyl)-phenyl 2-(4-isobutyl-phenyl)-propionate]",568 ± 100%,~900 mg/kg,210 ± 88%
"CN(C)CC1CCCCC1(O)c1cccc(OC(=O)c2ccccc2OC(=O)N(C)C)c1 (stereo not drawn) [EXAMPLE 8, 3-(2-dimethylaminomethyl-1-hydroxy-cyclohexyl)-phenyl (RR—SS)-2-dimethylcarbamoyloxy-benzoate]",327 ± 65%,–,–
"CN(C)CC1CCCCC1(O)c1cccc(OC(=O)c2ccccc2O)c1 (stereo not drawn) [EXAMPLE 6, 3-(2-dimethylaminomethyl-1-hydroxy-cyclohexyl)-phenyl (RR-SS)-2-hydroxybenzoate]",546 ± 63%,~550 mg/kg,248 ± 72%
"COc1ccc2cc(C(C)C(=O)Oc3cccc(C4=C(CN(C)C)CCCC4)c3)ccc2c1 (stereo not drawn) [EXAMPLE 5, 3-(2-dimethylaminomethyl-cyclohex-1-enyl)-phenyl 2-(6-methoxy-naphthalen-2-yl)-propionate]",356 ± 151%,–,–
"COc1cccc(C2(O)CCCCC2CN(C)C)c1 (single isomer, unassigned) [Tramadol, (1R, 2R or 1S, 2S)-2-[(dimethylamino)methyl]-1-(3-methoxyphenyl) cyclohexano, reference compound]",218 ± 98%,~350 mg/kg,87 ± 23%
